Assays:
[1] = biological target: T1, 3',5'-cyclic-AMP phosphodiesterase 4D (Homo sapiens, UniProt Q08499); assay: Inhibition of recombinant full-length PDE4D2 (unknown origin) at 1 uM using FAM-cAMP as substrate preincubated for 15 mins followed by substrate addition and measured after 30 mins by plate reader assay relative to control; conditions: time 45.0 min
RAW264.7 [2] = assay: Anti-inflammatory activity against LPS induced mouse RAW264.7 cells assessed as reduction in TNFalpha secretion at 10 uM incubated for 24 hrs by ELISA; format: functional
[3] = biological target: T1, 3',5'-cyclic-AMP phosphodiesterase 4D; assay: Inhibition of recombinant full-length PDE4D2 (unknown origin) using FAM-cAMP as substrate preincubated for 15 mins followed by substrate addition and measured after 30 mins by plate reader assay
HaCaT = assay: Anti-inflammatory activity against M5 induced human HaCaT cells assessed as reduction in TNFalpha secretion incubated for 24 hrs by ELISA; format: functional, cell-based
[4] = Cytotoxicity against mouse RAW264.7 cells incubated for 24 hrs by CCK8 assay; format: toxicity, cell-based
[5] = Cytotoxicity against human HaCaT cells incubated for 24 hrs by CCK8 assay; format: toxicity, cell-based
RAW264.7 [6] = assay: Anti-inflammatory activity against LPS induced mouse RAW264.7 cells assessed as reduction in TNFalpha secretion incubated for 24 hrs by ELISA; format: functional, cell-based; conditions: RAW264.7, 24 h
RAW264.7 [7] = assay: Anti-inflammatory activity against LPS induced mouse RAW264.7 cells assessed as reduction in IL-6 secretion incubated for 24 hrs by ELISA; format: functional, cell-based; conditions: RAW264.7, 24 h

T1 sequence (Q08499 whole entry): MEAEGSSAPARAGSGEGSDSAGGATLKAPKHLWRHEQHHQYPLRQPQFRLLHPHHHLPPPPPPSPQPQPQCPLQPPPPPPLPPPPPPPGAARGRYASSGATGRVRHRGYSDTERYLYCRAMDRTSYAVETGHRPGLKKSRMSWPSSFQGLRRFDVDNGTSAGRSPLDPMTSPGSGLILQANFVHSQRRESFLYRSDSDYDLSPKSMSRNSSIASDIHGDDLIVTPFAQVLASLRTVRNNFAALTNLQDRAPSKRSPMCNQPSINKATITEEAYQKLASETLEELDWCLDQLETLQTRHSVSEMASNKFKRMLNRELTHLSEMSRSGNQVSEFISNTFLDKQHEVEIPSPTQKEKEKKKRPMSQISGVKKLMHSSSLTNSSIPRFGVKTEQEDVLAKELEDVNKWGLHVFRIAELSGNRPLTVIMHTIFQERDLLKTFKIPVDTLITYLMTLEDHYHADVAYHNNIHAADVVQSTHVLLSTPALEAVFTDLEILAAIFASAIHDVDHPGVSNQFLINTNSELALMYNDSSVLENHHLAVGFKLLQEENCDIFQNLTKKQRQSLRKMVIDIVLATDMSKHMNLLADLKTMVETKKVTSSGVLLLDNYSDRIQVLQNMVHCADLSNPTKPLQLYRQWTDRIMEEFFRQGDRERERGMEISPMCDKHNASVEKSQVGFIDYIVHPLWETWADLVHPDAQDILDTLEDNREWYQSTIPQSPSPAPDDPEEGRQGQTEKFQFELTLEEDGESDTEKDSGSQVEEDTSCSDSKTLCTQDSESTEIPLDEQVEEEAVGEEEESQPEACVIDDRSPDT

| SMILES | inhibition [1] [%] | inhibition at 10 µM (RAW264.7 [2]) [%] | other results |
| --- | --- | --- | --- |
| O=C(NC1CC1)c1cnn2c(-c3ccc(OC(F)F)c(OCC4CC4)c3)ccnc12 | < 73.1 | – | – |
| O=C(Nc1ccncc1)c1cnn2c(-c3ccc(OC(F)F)c(OCC4CC4)c3)ccnc12 | < 73.1 | – | – |
| O=C(NCc1cccc(F)c1F)c1cc2nccc(-c3ccc(OC(F)F)c(OCC4CC4)c3)n2n1 | 64.6 | 13.7 | – |
| O=C(Nc1ccc2cc[nH]c2c1)c1cnn2c(-c3ccc(OC(F)F)c(OCC4CC4)c3)ccnc12 | < 73.1 | – | – |
| O=C(NCC1CCOCC1)c1cc2nccc(-c3ccc(OC(F)F)c(OCC4CC4)c3)n2n1 | 62.7 | 38.6 | – |
| CCC(CC)NC(=O)c1cnn2c(-c3ccc(OC(F)F)c(OCC4CC4)c3)ccnc12 | < 73.1 | – | – |
| O=C(NCc1c(F)cc(F)cc1F)c1csc(-c2ccc(OC(F)F)c(OCC3CC3)c2)n1 | – | 34 | IC50 [3]: 25.7 nM |
| O=C(NCc1ccc(F)cc1F)c1cc2nccc(-c3ccc(OC(F)F)c(OCC4CC4)c3)n2n1 | – | 13.6 | IC50 [3]: 558 nM |
| O=C(O)c1csc(-c2ccc(OC(F)F)c(OCC3CC3)c2)n1 | 78.5 | 22.9 | – |
| O=C(NCc1ccc2ccccc2c1)c1csc(-c2ccc(OC(F)F)c(OCC3CC3)c2)n1 | 78 | 14 | – |
| O=C(NCc1c(F)cccc1F)c1cc2nccc(-c3ccc(OC(F)F)c(OCC4CC4)c3)n2n1 | 41.9 | 27.9 | – |
| O=C(NCc1ccc(F)cc1F)c1cnn2c(-c3ccc(OC(F)F)c(OCC4CC4)c3)ccnc12 | < 73.1 | – | – |
| O=C(NCc1c(F)cc(F)cc1F)c1cnn2c(-c3ccc(OC(F)F)c(OCC4CC4)c3)ccnc12 | < 73.1 | – | – |
| O=C(NC1CCCCC1)c1cnn2c(-c3ccc(OC(F)F)c(OCC4CC4)c3)ccnc12 | < 73.1 | – | – |
| Cn1cc(NC(=O)c2cc3nccc(-c4ccc(OC(F)F)c(OCC5CC5)c4)n3n2)cn1 | 46.7 | 15.4 | – |
| O=C(NCC1CCOCC1)c1cnn2c(-c3ccc(OC(F)F)c(OCC4CC4)c3)ccnc12 | < 73.1 | – | – |
| COc1ccc(CNC(=O)c2cnn3c(-c4ccc(OC(F)F)c(OCC5CC5)c4)ccnc23)cn1 | < 73.1 | – | – |
| O=C(Nc1nc2ccccc2s1)c1csc(-c2ccc(OC(F)F)c(OCC3CC3)c2)n1 | 75.3 | 21.7 | – |
| O=C(Nc1ccccc1)c1csc(-c2ccc(OC(F)F)c(OCC3CC3)c2)n1 | 72.4 | 26.5 | – |
| Cn1cc(NC(=O)c2cnn3c(-c4ccc(OC(F)F)c(OCC5CC5)c4)ccnc23)cn1 | < 73.1 | – | – |
| O=C(NCc1ccc(F)cc1F)c1csc(-c2ccc(OC(F)F)c(OCC3CC3)c2)n1 | 79.1 | 17.6 | – |
| O=C(NCc1c(F)cc(F)cc1F)c1cc2nccc(-c3ccc(OC(F)F)c(OCC4CC4)c3)n2n1 | 38.4 | 23.3 | – |
| O=C(NCc1ccccc1)c1cnn2c(-c3ccc(OC(F)F)c(OCC4CC4)c3)ccnc12 | < 73.1 | – | – |

| SMILES | inhibition [1] [%] | inhibition at 10 µM (RAW264.7 [2]) [%] | other results |
| --- | --- | --- | --- |
| O=C(Nc1nccs1)c1csc(-c2ccc(OC(F)F)c(OCC3CC3)c2)n1 | 64.8 | 14.6 | – |
| O=C(Nc1nccs1)c1cnn2c(-c3ccc(OC(F)F)c(OCC4CC4)c3)ccnc12 | < 73.1 | – | – |
| O=C(NCc1ncccn1)c1cc2nccc(-c3ccc(OC(F)F)c(OCC4CC4)c3)n2n1 | 70.7 | 25.1 | – |
| O=C(NCc1cccnc1)c1cnn2c(-c3ccc(OC(F)F)c(OCC4CC4)c3)ccnc12 | < 73.1 | – | – |
| O=C(NCc1cc(F)ccc1F)c1cnn2c(-c3ccc(OC(F)F)c(OCC4CC4)c3)ccnc12 | < 73.1 | – | – |
| O=C(Nc1nccs1)c1cc2nccc(-c3ccc(OC(F)F)c(OCC4CC4)c3)n2n1 | 86.1 | 25.8 | – |
| O=C(Nc1ccccc1)c1cc2nccc(-c3ccc(OC(F)F)c(OCC4CC4)c3)n2n1 | 89.2 | 16.5 | – |
| CC(C)CNC(=O)c1cnn2c(-c3ccc(OC(F)F)c(OCC4CC4)c3)ccnc12 | < 73.1 | – | – |
| O=C(NCc1ccc2ccccc2c1)c1cc2nccc(-c3ccc(OC(F)F)c(OCC4CC4)c3)n2n1 | 38.3 | 12.4 | – |
| O=C(NCc1cccc(F)c1F)c1csc(-c2ccc(OC(F)F)c(OCC3CC3)c2)n1 | – | 24.8 | IC50 [3]: 25 nM |
| O=C(Nc1ccncc1)c1csc(-c2ccc(OC(F)F)c(OCC3CC3)c2)n1 | – | 25.6 | IC50 [3]: 77.2 nM |
| CC(C)(C)CNC(=O)c1cnn2c(-c3ccc(OC(F)F)c(OCC4CC4)c3)ccnc12 | < 73.1 | – | – |
| O=C(Nc1ccc2ncsc2c1)c1cnn2c(-c3ccc(OC(F)F)c(OCC4CC4)c3)ccnc12 | < 73.1 | – | – |
| O=C(NCc1ccc2ccccc2c1)c1cnn2c(-c3ccc(OC(F)F)c(OCC4CC4)c3)ccnc12 | < 73.1 | – | – |
| O=C(NCc1ccccc1)c1cc2nccc(-c3ccc(OC(F)F)c(OCC4CC4)c3)n2n1 | – | 19.6 | IC50 [3]: 546 nM |
| O=C(NCc1cc(F)ccc1F)c1cc2nccc(-c3ccc(OC(F)F)c(OCC4CC4)c3)n2n1 | 42.6 | 16.3 | – |
| O=C(NCc1c(F)cccc1F)c1cnn2c(-c3ccc(OC(F)F)c(OCC4CC4)c3)ccnc12 | < 73.1 | – | – |
| O=C(Nc1ccccc1)c1cnn2c(-c3ccc(OC(F)F)c(OCC4CC4)c3)ccnc12 | < 73.1 | – | – |
| O=C(NCc1c(F)cccc1F)c1csc(-c2ccc(OC(F)F)c(OCC3CC3)c2)n1 | – | – | IC50 (HaCaT): 22.6 µM; CC50 at 24 h [4]: > 50 µM; CC50 at 24 h [5]: > 50 µM; IC50 (RAW264.7 [6]): 48.4 µM; IC50 [3]: 9.36 nM; IC50 (RAW264.7 [7]): 57 µM |
| O=C(NCc1ccccc1)c1csc(-c2ccc(OC(F)F)c(OCC3CC3)c2)n1 | – | 29 | IC50 [3]: 25.9 nM |
| O=C(NCc1cccnc1)c1cc2nccc(-c3ccc(OC(F)F)c(OCC4CC4)c3)n2n1 | 49.3 | 6.6 | – |
| O=C(NCc1cccc(F)c1F)c1cnn2c(-c3ccc(OC(F)F)c(OCC4CC4)c3)ccnc12 | < 73.1 | – | – |

Reference: ChEMBL document CHEMBL6127131, “Design, Synthesis, and Biological Evaluation of New Selective PDE4 Inhibitors for Topical Treatment of Psoriasis” (J Med Chem, 2024)
